Like-named read-outs stand apart in the source and are kept apart here.

The conditions of data set [1]: amide bond, 13-membered ring, DMF.
The target in data set [2] is T1, CFTR (Homo sapiens, UniProt P13569). Put plainly: Membrane potential dye, Enteroid Assay A. In kind it is cell-based. The following applies: Table 6; for Ent. A Max Activity: chloride transport as % of triple combination control (Enteroid Assay A); for EC50: human enteroid cells, 18-24 hours, acute 10 μM forskolin and 300 nM ivacaftor, read-out: Ent. A EC50. The essentials: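 Human intestinal enteroids incubated 18-24 h at 37 °C with test compound, then loaded with 20 μM methyl oxonol (with CaCC inhibitors). Chloride transport triggered in chloride-free buffer with 10 μM forskolin, 100 μM IBMX, 300 nM Compound III; fluorescence read 15 min, expressed as % of a triple-combination corrector/potentiator control.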
Target sequence in this assay (P13569 with tags, fused parts or gaps DEL508-508): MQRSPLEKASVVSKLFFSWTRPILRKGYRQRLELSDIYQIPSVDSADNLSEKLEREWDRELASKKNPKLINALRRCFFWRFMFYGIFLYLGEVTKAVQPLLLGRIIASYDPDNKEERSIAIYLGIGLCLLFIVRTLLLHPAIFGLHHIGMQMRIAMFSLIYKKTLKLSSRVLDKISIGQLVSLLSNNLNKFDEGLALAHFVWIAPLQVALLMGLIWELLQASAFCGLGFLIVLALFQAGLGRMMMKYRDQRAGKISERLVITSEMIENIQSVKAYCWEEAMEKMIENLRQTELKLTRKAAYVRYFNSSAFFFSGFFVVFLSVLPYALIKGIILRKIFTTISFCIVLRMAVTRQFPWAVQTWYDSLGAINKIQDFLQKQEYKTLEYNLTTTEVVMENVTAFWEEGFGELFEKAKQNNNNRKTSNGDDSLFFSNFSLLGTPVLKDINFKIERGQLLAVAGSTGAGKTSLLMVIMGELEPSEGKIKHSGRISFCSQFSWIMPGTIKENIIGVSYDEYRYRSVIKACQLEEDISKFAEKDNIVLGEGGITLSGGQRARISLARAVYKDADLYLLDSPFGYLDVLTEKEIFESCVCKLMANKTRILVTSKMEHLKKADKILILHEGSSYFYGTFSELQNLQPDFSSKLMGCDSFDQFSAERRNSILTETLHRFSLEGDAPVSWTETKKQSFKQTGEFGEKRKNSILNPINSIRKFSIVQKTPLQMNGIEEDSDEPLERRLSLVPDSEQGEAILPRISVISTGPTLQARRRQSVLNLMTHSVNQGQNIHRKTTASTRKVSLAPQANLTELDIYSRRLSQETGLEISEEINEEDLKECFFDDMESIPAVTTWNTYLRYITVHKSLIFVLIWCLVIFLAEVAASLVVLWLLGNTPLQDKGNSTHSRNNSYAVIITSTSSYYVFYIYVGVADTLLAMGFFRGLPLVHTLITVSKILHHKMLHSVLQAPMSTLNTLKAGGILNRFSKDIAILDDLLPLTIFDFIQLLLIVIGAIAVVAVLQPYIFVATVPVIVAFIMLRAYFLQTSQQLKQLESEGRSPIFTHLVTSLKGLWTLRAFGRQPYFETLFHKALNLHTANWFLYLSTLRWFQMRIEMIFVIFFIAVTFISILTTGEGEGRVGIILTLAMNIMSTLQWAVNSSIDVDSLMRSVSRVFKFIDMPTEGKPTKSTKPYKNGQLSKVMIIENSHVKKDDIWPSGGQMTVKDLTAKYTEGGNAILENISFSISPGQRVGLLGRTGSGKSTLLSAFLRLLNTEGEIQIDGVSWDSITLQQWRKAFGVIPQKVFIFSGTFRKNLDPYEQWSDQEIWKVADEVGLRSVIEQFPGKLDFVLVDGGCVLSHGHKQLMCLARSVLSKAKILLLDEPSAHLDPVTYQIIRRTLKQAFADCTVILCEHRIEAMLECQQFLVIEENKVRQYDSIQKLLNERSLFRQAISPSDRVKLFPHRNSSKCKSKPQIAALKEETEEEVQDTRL

The conditions of data set [3]: amide bond, 13-membered ring, DMF, 25.0 °C, 0.33 h.
For data set [4], the target named is T1, CFTR. Kind of data set: standard Ussing Chamber Assay for CFTR potentiator activity. In kind it is cell-based. The following applies: qualitative statement.
Target sequence in this assay (P13569 whole entry, species assumed): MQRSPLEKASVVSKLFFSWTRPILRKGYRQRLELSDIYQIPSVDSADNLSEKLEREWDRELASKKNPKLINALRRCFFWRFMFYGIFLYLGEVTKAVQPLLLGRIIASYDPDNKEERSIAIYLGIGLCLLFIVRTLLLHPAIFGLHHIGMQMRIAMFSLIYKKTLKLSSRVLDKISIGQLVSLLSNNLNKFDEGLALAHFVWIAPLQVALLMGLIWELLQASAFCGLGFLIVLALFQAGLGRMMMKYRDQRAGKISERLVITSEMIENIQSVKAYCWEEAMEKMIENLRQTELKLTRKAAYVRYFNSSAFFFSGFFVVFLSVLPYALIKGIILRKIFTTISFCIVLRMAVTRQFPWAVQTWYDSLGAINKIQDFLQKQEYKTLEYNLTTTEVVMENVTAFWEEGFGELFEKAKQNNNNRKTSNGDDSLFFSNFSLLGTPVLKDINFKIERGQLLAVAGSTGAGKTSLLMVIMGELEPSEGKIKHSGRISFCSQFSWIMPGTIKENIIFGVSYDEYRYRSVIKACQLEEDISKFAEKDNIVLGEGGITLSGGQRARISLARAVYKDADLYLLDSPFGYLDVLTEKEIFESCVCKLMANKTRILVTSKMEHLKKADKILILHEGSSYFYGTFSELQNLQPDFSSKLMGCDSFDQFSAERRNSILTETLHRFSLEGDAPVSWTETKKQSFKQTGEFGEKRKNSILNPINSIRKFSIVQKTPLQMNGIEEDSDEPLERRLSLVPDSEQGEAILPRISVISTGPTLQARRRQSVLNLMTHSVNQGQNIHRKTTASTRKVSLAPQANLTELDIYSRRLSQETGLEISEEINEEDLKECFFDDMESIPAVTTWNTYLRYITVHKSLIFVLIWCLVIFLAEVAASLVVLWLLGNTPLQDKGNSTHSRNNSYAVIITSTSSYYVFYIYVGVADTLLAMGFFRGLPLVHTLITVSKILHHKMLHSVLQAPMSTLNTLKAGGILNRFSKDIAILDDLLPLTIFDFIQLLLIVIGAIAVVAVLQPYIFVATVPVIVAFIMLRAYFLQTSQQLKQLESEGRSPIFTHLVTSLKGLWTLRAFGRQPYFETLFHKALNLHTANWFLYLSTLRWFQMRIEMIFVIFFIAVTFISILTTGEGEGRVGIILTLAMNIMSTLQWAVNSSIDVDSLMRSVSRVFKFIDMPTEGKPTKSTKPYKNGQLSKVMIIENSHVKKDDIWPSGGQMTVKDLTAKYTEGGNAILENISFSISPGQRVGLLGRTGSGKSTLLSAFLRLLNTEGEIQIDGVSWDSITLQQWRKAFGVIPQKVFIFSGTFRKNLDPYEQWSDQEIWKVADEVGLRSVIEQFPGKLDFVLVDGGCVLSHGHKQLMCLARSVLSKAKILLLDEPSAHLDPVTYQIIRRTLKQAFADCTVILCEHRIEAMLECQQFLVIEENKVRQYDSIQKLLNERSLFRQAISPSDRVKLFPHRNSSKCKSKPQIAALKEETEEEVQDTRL
The target in data set [5] is T2, CFTR (Homo sapiens, UniProt P13569, DEL508-508).
T2 construct: endogenous in cells; host or cells: primary human bronchial epithelial cells from CF subjects (F508del/MF-HBE), differentiated at air-liquid interface
T2 sequence (P13569 with tags, fused parts or gaps DEL508-508): as the sequence (P13569 with tags, fused parts or gaps DEL508-508) above
Kind of data set: HBE assay: Ussing chamber assay of CFTR-mediated short-circuit currents. In kind it is cell-based. The conditions noted are these: HBE assay. The essentials:
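CFTR-mediated Isc (μA/cm²) equals the peak response to apical 20 μM forskolin minus the residual after a 20 μM each BPO/GlyH-101/CFTR inhibitor 172 cocktail, recorded in Ussing chambers at Vhold 0 mV, 37 °C, pH 7.4, with 30 μM apical amiloride. Cells were F508del/MF HBE cultures preincubated 18-24 h with corrector (concentration range or 10 μM) plus 1 μM ivacaftor in 20% human serum.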

For data set [6], the target named is T2, CFTR. Kind of data set: HBE2 assay: Ussing chamber assay of CFTR-mediated short-circuit currents. The class given is cell-based. The conditions noted are these: 3 μM; F508del/MF-HBE cells; with 44 nM potentiator; 18-24 hours; 20% human serum. The gist of the method:
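F508del/MF-HBE cultured >14 days at air-liquid interface, mounted in Ussing chambers; transepithelial short-circuit current recorded under voltage clamp (Vhold=0 mV) at 37 °C. CFTR-mediated ISC (μA/cm^2) taken as peak forskolin response relative to steady-state current after inhibition; corrector activity assessed this way.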

`Cc1cccc(C)c1-c1cc2nc(n1)NS(=O)(=O)c1cccc(c1)C(=O)N(C)CC(COCc1ccccc1)O2` (stereo not shown) [Compound 99, 10-(benzyloxymethyl)-6-(2,6-dimethylphenyl)-12-methyl-2,2-dioxo-9-oxa-2λ^6-thia-3,5,12,19-tetrazatricyclo[12.3.1.14,8]nonadeca-1(18),4(19),5,7,14,16-hexaen-13-one] yielded a ring closure, isolated yield in data set [1] (from CNCC(COCc1ccccc1)Oc1cc(-c2c(C)cccc2C)nc(NS(=O)(=O)c2cccc(C(=O)O)c2)n1, HATU/DIEA, 33.6 mM, 25.0 °C, 0.25 h) of 58%. For the same compound, at CFTR [2], the “Ent. A Max Activity” value was “++ (++ is 30-60%)” and the EC50 was in the range of 1000 to 3000 nM.

With `CCOC(=O)CCCCN1C(=O)c2cccc(n2)S(=O)(=O)Nc2nc(cc(-c3c(C)cccc3C)n2)OC[C@H]1CC(C)(C)C`, the ring closure, crude yield in data set [3] (from CCOC(=O)CCCCN[C@@H](COc1cc(-c2c(C)cccc2C)nc(NS(=O)(=O)c2cccc(C(=O)O)n2)n1)CC(C)(C)C, HATU/DIEA, 26.1 mM) was 100%.

For `Cc1cccc(C)c1-c1cc2nc(n1)NS(=O)(=O)c1cccc(c1)C(=O)N(C)CC(CNC(=O)OC(C)(C)C)O2` (stereo not shown) [Compound 97, tert-Butyl N-[[6-(2,6-dimethylphenyl)-12-methyl-2,2,13-trioxo-9-oxa-2λ^6-thia-3,5,12,19-tetrazatricyclo[12.3.1.14,8]nonadeca-1(18),4(19),5,7,14,16-hexaen-10-yl]methyl]carbamate], in data set [1] (from CNCC(CNC(=O)OC(C)(C)C)Oc1cc(-c2c(C)cccc2C)nc(NS(=O)(=O)c2cccc(C(=O)O)c2)n1, HATU/DIEA, 37.9 mM, 25.0 °C, 0.25 h), the ring closure, isolated yield was determined as 42%. Besides, on CFTR [2], the “Ent. A Max Activity” value is “++ (++ is 30-60%)” and the EC50 was 3000 to 30000 nM.

With `COCN1c2nc(cc(-c3c(C)cccc3C)n2)OC[C@@H](CC(C)C)NC(=O)c2cccc(c2)S1(=O)=O`, in data set [3] (from COCN(c1nc(OC[C@H](N)CC(C)C)cc(-c2c(C)cccc2C)n1)S(=O)(=O)c1cccc(C(=O)O)c1, HATU/Et3N, 106.0 mM), the ring closure, crude yield came out at 100%.

With `C[C@@H]1CCCCC[C@](O)(C(F)(F)F)C2=NN=C(O2)c2nc(c(C(F)(F)F)cc2N)O1` [(6R,12R)-17-amino-12-methyl-6,15-bis(trifluoromethyl)-13,19-dioxa-3,4,18-triazatricyclo[12.3.1.12,5]nonadeca-1(18),2,4,14,16-pentaen-6-ol], the CFTR modulatory activity entry at CFTR [4] was “confirmed”.

In data set [1] (from CNCC(Oc1cc(-c2c(C)cccc2C)nc(NS(=O)(=O)c2cccc(C(=O)O)c2)n1)c1ccc(Br)cc1, HATU/DIEA, 29.7 mM, 25.0 °C, 2.0 h, 2 steps), `Cc1cccc(C)c1-c1cc2nc(n1)NS(=O)(=O)c1cccc(c1)C(=O)N(C)CC(c1ccc(Br)cc1)O2` (stereo not shown) [Compound 8, 10-(4-Bromophenyl)-6-(2,6-dimethylphenyl)-12-methyl-2,2-dioxo-9-oxa-2λ^6-thia-3,5,12,19-tetrazatricyclo[12.3.1.14,8]nonadeca-1(18),4(19),5,7,14,16-hexaen-13-one] yielded a ring closure, isolated yield of 61%. Further, on CFTR [2], the “Ent. A Max Activity” value is “+++ (+++ is >60%)” and the EC50 was < 1000 nM.

The compound `Cc1cccc(C)c1-c1cc2nc(n1)NS(=O)(=O)c1cccc(c1)C(=O)N(Cc1ncc(OC(C)C)cn1)[C@H](CCC(C)(C)C)CO2` [Compound 1296, (11R)-11-(3,3-Dimethylbutyl)-6-(2,6-dimethylphenyl)-12-[(5-isopropoxypyrimidin-2-yl)methyl]-2,2-dioxo-9-oxa-2λ^6-thia-3,5,12,19-tetrazatricyclo[12.3.1.14,8]nonadeca-1(18),4(19),5,7,14,16-hexaen-13-one] gave a ring closure, isolated yield in data set [1] (from Cc1cccc(C)c1-c1cc(OC[C@@H](CCC(C)(C)C)NCc2ncc(OC(C)C)cn2)nc(NS(=O)(=O)c2cccc(C(=O)O)c2)n1, CDMT/NMM, 29.6 mM, 21.0 h) of 60%. At CFTR [5] (read-out: HBE EC50), the EC50 is < 1000 nM. The Emax at CFTR [5] (read-out: HBE Max activity (%)) was > 60%. Moreover, the “HBE2 Activity at 3 μM (%)” value at CFTR [6] is “+++ (+++ is >60+)”.
